Source: ChEMBL document CHEMBL3046193, “Promising antitumor effect of alpha-tocopheryl succinate in human colon and liver cancer cells” (Med Chem Res, 2012)
Activity calls are given as the source filed them. No cut-off for these calls is given here.

Key:
MCF7 [1] = test: Cytotoxicity against Homo sapiens (human) MCF7 cells at 40 uM after 48 hr by SRB assay; type: functional
HepG2 [2] = test: Cytotoxicity against Homo sapiens (human) HepG2 cells at 40 uM after 72 hr by SRB assay; type: functional
HeLa [3] = test: Cytotoxicity against Homo sapiens (human) HeLa cells at 40 uM after 72 hr by SRB assay; type: functional
HCT-116 [4] = test: Cytotoxicity against Homo sapiens (human) HCT116 cells at 40 uM after 72 hr by SRB assay; type: functional
MCF7 [5] = test: Cytotoxicity against Homo sapiens (human) MCF7 cells at 20 uM after 72 hr by SRB assay; type: functional, cell-based
HCT-116 [6] = test: Cytotoxicity against Homo sapiens (human) HCT116 cells at 20 uM after 72 hr by SRB assay; type: functional, cell-based
HeLa [7] = test: Cytotoxicity against Homo sapiens (human) HeLa cells at 20 uM after 72 hr by SRB assay; type: functional, cell-based
HepG2 [8] = test: Cytotoxicity against Homo sapiens (human) HepG2 cells at 20 uM after 72 hr by SRB assay; type: functional, cell-based
HCT-116 [9] = test: Induction of cell cycle arrest in Homo sapiens (human) HCT116 cells assessed as increase in G0/G1 phase cells at 52.3 uM at 48 hr by flow cytometric analysis relative to control; type: functional
HCT-116 [10] = test: Induction of cell cycle arrest in Homo sapiens (human) HCT116 cells assessed as increase in G0/G1 phase cells at 52.3 uM at 24 hr by flow cytometric analysis relative to control; type: functional
HCT-116 [11] = test: Induction of cell cycle arrest in Homo sapiens (human) HCT116 cells assessed as G0/G1 phase cells at 52.3 uM at 16 hr by flow cytometric analysis (reference value: 58.2 +/- 3.7 cells); type: functional
MCF7 [12] = test: Cytotoxicity against Homo sapiens (human) MCF7 cells at 20 to 100 uM by SRB assay; type: functional, cell-based; conditions: TDE = time-dependent effect
HeLa [13] = test: Cytotoxicity against Homo sapiens (human) HeLa cells at 20 to 100 uM by SRB assay; type: functional, cell-based; conditions: TDE = time-dependent effect
HepG2 [14] = test: Cytotoxicity against Homo sapiens (human) HepG2 cells at 20 to 100 uM by SRB assay; type: functional, cell-based; conditions: TDE = time-dependent effect
HCT-116 [15] = test: Cytotoxicity against Homo sapiens (human) HCT116 cells at 20 to 100 uM by SRB assay; type: functional, cell-based; conditions: TDE = time-dependent effect
MCF7 [16] = test: Cytotoxicity against Homo sapiens (human) MCF7 cells after 24 to 72 hr by SRB assay; type: functional, cell-based
HeLa [17] = test: Cytotoxicity against Homo sapiens (human) HeLa cells after 24 to 72 hr by SRB assay; type: functional, cell-based
HepG2 [18] = test: Cytotoxicity against Homo sapiens (human) HepG2 cells after 24 to 72 hr by SRB assay; type: functional, cell-based
HCT-116 [19] = test: Cytotoxicity against Homo sapiens (human) HCT116 cells after 24 to 72 hr by SRB assay; type: functional, cell-based
HepG2 [20] = test: Cytotoxicity against Homo sapiens (human) HepG2 cells after 48 hr by SRB assay; type: functional, cell-based; conditions: HepG2, 48 h
HCT-116 [21] = test: Cytotoxicity against Homo sapiens (human) HCT116 cells after 48 hr by SRB assay; type: functional, cell-based; conditions: HCT-116, 48 h
MCF7 [22] = test: Cytotoxicity against Homo sapiens (human) MCF7 cells at 100 uM after 24 hr by SRB assay; type: functional
HepG2 [23] = test: Cytotoxicity against Homo sapiens (human) HepG2 cells at 100 uM after 24 hr by SRB assay; type: functional
HeLa [24] = test: Cytotoxicity against Homo sapiens (human) HeLa cells at 100 uM after 24 hr by SRB assay; type: functional
HCT-116 [25] = test: Cytotoxicity against Homo sapiens (human) HCT116 cells at 100 uM after 24 hr by SRB assay; type: functional
HepG2 [26] = test: Induction of cell cycle arrest in Homo sapiens (human) HepG2 cells assessed as increase in G0/G1 phase cells at 55 uM at 48 hr by flow cytometric analysis relative to control; type: functional
HepG2 [27] = test: Induction of cell cycle arrest in Homo sapiens (human) HepG2 cells assessed as increase in G0/G1 phase cells at 55 uM at 24 hr by flow cytometric analysis relative to control; type: functional
HepG2 [28] = test: Induction of cell cycle arrest in Homo sapiens (human) HepG2 cells assessed as G0/G1 phase cells at 55 uM at 16 hr by flow cytometric analysis (reference value: 50.4 +/- 1.7 cells); type: functional
HCT-116 [29] = test: Induction of cell cycle arrest in Homo sapiens (human) HCT116 cells assessed as G2/M phase cells at 52.3 uM at 48 hr by flow cytometric analysis (reference value: 9.7 +/- 0.8 cells); type: functional
HCT-116 [30] = test: Induction of cell cycle arrest in Homo sapiens (human) HCT116 cells assessed as G2/M phase cells at 52.3 uM at 24 hr by flow cytometric analysis (reference value: 9.7 +/- 0.8 cells); type: functional
HCT-116 [31] = test: Induction of cell cycle arrest in Homo sapiens (human) HCT116 cells assessed as G2/M phase cells at 52.3 uM at 16 hr by flow cytometric analysis (reference value: 9.7 +/- 0.8 cells); type: functional
HCT-116 [32] = test: Induction of cell cycle arrest in Homo sapiens (human) HCT116 cells assessed as S phase cells at 52.3 uM at 48 hr by flow cytometric analysis (reference value: 33.6 +/- 0.6 cells); type: functional
HCT-116 [33] = test: Induction of cell cycle arrest in Homo sapiens (human) HCT116 cells assessed as S phase cells at 52.3 uM at 24 hr by flow cytometric analysis (reference value: 33.6 +/- 0.6 cells); type: functional
HCT-116 [34] = test: Induction of cell cycle arrest in Homo sapiens (human) HCT116 cells assessed as S phase cells at 52.3 uM at 16 hr by flow cytometric analysis (reference value: 33.6 +/- 0.6 cells); type: functional
HepG2 [35] = test: Antiangiogenic activity against Homo sapiens (human) HepG2 cells assessed as reduction in VEGF level at 55 uM from 24 to 48 hr by ELISA relative to control; type: functional, cell-based
HCT-116 [36] = test: Antiangiogenic activity against Homo sapiens (human) HCT116 cells assessed as reduction in VEGF level at 52.3 uM after 48 hr by ELISA relative to control; type: functional; design: scale not given: the % may be the effect or the level left
HCT-116 [37] = test: Antiangiogenic activity against Homo sapiens (human) HCT116 cells assessed as reduction in VEGF level at 52.3 uM after 24 hr by ELISA relative to control; type: functional; design: scale not given: the % may be the effect or the level left
HepG2 [38] = test: Cytotoxicity against Homo sapiens (human) HepG2 cells assessed as DNA fragmentation at 55 uM from 24 to 48 hr by agarose gel electrophoresis; type: functional, cell-based
HCT-116 [39] = test: Cytotoxicity against Homo sapiens (human) HCT116 cells assessed as DNA fragmentation at […] after 48 hr by agarose gel electrophoresis; type: functional, cell-based
HepG2 [40] = test: Induction of apoptosis in Homo sapiens (human) HepG2 cells assessed as caspase9 cleavage at 55 uM at 16 hr by Western blot analysis; type: functional, cell-based
HCT-116 [41] = test: Induction of apoptosis in Homo sapiens (human) HCT116 cells assessed as caspase9 cleavage at 52.3 uM at 16 hr by Western blot analysis; type: functional, cell-based
HepG2 [42] = test: Induction of apoptosis in Homo sapiens (human) HepG2 cells assessed as effect on Bcl2 level at 55 uM from 3 to 24 hr by Western blot analysis; type: functional, cell-based
HCT-116 [43] = test: Induction of apoptosis in Homo sapiens (human) HCT116 cells assessed as effect on Bcl2 level at 52.3 uM from 3 to 24 hr by Western blot analysis; type: functional, cell-based
HepG2 [44] = test: Induction of cell cycle arrest in Homo sapiens (human) HepG2 cells assessed as G2/M phase cells at 55 uM at 48 hr by flow cytometric analysis (reference value: 4 +/- 0.9 cells); type: functional
HepG2 [45] = test: Induction of cell cycle arrest in Homo sapiens (human) HepG2 cells assessed as G2/M phase cells at 55 uM at 24 hr by flow cytometric analysis (reference value: 4 +/- 0.9 cells); type: functional
HepG2 [46] = test: Induction of cell cycle arrest in Homo sapiens (human) HepG2 cells assessed as G2/M phase cells at 55 uM at 16 hr by flow cytometric analysis (reference value: 4 +/- 0.9 cells); type: functional
HepG2 [47] = test: Induction of cell cycle arrest in Homo sapiens (human) HepG2 cells assessed as S phase cells at 55 uM at 48 hr by flow cytometric analysis (reference value: 46.4 +/- 3.6 cells); type: functional
HepG2 [48] = test: Induction of cell cycle arrest in Homo sapiens (human) HepG2 cells assessed as S phase cells at 55 uM at 24 hr by flow cytometric analysis (reference value: 46.4 +/- 3.6 cells); type: functional
HepG2 [49] = test: Induction of cell cycle arrest in Homo sapiens (human) HepG2 cells assessed as S phase cells at 55 uM at 16 hr by flow cytometric analysis (reference value: 46.4 +/- 3.6 cells); type: functional

With `Cc1c(C)c2c(c(C)c1OC(=O)CCC(=O)O)CC[C@@](C)(CCC[C@H](C)CCC[C@H](C)CCCC(C)C)O2` [(+)-ALPHA-TOCOPHERYL SUCCINATE] the Activity (MCF7 [1]) was 14%, the Activity (HepG2 [2]) was 15% and the Activity (HeLa [3]) was 20%. For the same compound, the Activity (HCT-116 [4]) was 48%, the Activity (MCF7 [5]) was “inactive” and the Activity (HCT-116 [6]) was “inactive”. For the same compound, the Activity (HeLa [7]) was “inactive”, the Activity (HepG2 [8]) was “inactive” and the Activity (HCT-116 [9]) was 47.3%. The Activity (HCT-116 [10]) was 32.3%, the Activity (HCT-116 [11]) was 58.7% and the Activity (MCF7 [12]) was “tde”. The Activity (HeLa [13]) was “tde”, the Activity (HepG2 [14]) was “tde” and the Activity (HCT-116 [15]) was “tde”. For the same compound, the Activity (MCF7 [16]) was “Dose-dependent effect”, the Activity (HeLa [17]) was “Dose-dependent effect” and the Activity (HepG2 [18]) was “Dose-dependent effect”. The Activity (HCT-116 [19]) was “Dose-dependent effect”, the IC50 (HepG2 [20]) was 55 µM and the IC50 (HCT-116 [21]) was 52.3 µM. It also gave an Activity (MCF7 [22]) of 45%, an Activity (HepG2 [23]) of 55% and an Activity (HeLa [24]) of 65%. It also gave an Activity (HCT-116 [25]) of 47%, an Activity (HepG2 [26]) of 62.1% and an Activity (HepG2 [27]) of 27.4%. It also gave an Activity (HepG2 [28]) of 60%, an Activity (HCT-116 [29]) of 2.7% and an Activity (HCT-116 [30]) of 4.4%. It also gave an Activity (HCT-116 [31]) of 9.5%, an Activity (HCT-116 [32]) of 13.4% and an Activity (HCT-116 [33]) of 19.9%. For the same compound, the Activity (HCT-116 [34]) was 32.7%, the Activity (HepG2 [35]) was “Active” and the Activity (HCT-116 [36]) was 54%. The Activity (HCT-116 [37]) was 39%, the Activity (HepG2 [38]) was “Active” and the Activity (HCT-116 [39]) was “Active”. For the same compound, the Activity (HepG2 [40]) was “Active”, the Activity (HCT-116 [41]) was “Active” and the Activity (HepG2 [42]) was “inactive”. The Activity (HCT-116 [43]) was “inactive”, the Activity (HepG2 [44]) was 1.8% and the Activity (HepG2 [45]) was 2.1%. For the same compound, the Activity (HepG2 [46]) was 2.9%, the Activity (HepG2 [47]) was 15.4% and the Activity (HepG2 [48]) was 33.01%. For the same compound, the Activity (HepG2 [49]) was 38.4%.
